Where two headings read alike, the source gives them in different places.
Experiments:
[1] = tested on: woodchuck hepatitis virus; conditions: cited from earlier work
hepatitis B virus = conditions: cited from earlier work; for HBV markers after dosing was stopped: chronic HBV patients
[2] = Peak and trough plasma levels of FIAU and FAU by HPLC; type: in vivo, human; conditions: in vivo
From the text: Additionally at Baseline, archive plasma samples were taken.

[3] = Stability in an acid environment; type: physicochemical; conditions: such as is found in the human stomach
HSV-1 = conditions: read-out: in vitro ED90; cited from earlier work
CMV = conditions: read-out: in vitro ED90; cited from earlier work
[4] = typical; read-out: cellular toxicity concentration (ID50); cited from earlier work
[5] = molecular target: DNA polymerase enzyme of human hepatitis B virus (Hepatitis B virus genotype D subtype ayw, UniProt P03156); conditions: read-out: concentration inhibiting DNA polymerase activity by 50 percent; cited from earlier work
[6] = molecular target: DNA polymerase enzyme of woodchuck hepatitis virus (Woodchuck hepatitis B virus, UniProt P03160); conditions: read-out: concentration inhibiting DNA polymerase activity by 50 percent; cited from earlier work
[7] = cited from earlier work
[8] = chronic type therapy at HBV DNA suppressive doses

DNA polymerase enzyme of human hepatitis B virus, sequence (P03156 whole entry): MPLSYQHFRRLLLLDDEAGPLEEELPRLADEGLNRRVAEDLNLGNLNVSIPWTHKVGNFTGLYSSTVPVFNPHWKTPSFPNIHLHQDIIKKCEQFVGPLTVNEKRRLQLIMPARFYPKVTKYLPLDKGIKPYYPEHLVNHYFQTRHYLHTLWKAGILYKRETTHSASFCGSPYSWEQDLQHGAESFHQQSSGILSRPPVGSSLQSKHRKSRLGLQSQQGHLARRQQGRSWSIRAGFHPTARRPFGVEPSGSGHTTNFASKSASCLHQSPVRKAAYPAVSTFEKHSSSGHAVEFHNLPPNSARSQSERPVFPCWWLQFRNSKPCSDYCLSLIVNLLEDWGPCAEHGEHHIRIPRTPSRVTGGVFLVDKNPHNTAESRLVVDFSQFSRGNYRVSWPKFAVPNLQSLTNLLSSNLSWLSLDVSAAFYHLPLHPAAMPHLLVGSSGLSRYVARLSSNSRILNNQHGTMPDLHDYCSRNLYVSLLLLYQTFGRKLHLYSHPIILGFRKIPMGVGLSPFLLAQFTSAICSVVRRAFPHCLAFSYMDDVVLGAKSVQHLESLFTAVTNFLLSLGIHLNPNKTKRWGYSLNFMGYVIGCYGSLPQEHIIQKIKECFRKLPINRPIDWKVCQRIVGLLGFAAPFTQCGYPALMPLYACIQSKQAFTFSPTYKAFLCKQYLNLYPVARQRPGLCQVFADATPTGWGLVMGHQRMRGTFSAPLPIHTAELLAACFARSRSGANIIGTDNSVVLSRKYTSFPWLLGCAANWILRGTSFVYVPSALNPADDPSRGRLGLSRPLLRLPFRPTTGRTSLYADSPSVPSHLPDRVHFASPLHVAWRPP
DNA polymerase enzyme of woodchuck hepatitis virus, sequence (P03160 whole entry): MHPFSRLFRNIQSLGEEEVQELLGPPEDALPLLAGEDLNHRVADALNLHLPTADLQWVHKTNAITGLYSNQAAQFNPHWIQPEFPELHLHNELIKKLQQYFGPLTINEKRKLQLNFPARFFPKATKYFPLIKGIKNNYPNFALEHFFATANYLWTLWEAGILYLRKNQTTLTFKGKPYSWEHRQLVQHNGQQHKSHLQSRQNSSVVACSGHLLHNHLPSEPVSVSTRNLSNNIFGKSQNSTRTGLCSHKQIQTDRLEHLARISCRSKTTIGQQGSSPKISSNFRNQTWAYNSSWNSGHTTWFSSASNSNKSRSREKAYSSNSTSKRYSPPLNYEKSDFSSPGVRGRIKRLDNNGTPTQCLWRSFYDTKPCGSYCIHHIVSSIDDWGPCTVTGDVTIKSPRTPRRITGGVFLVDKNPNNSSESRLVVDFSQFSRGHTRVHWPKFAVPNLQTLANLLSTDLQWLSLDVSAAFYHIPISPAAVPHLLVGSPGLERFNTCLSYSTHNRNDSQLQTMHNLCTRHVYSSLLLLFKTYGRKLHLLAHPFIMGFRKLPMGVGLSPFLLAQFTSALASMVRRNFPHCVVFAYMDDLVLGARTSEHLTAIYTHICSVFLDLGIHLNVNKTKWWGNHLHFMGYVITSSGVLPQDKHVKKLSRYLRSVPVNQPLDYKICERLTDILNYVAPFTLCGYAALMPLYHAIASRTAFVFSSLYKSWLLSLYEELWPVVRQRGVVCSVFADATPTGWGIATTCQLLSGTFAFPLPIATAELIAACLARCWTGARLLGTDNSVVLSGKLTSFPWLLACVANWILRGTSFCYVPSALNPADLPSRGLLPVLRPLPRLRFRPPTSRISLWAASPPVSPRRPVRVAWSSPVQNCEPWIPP

Nc1ncnc2c1ncn2[C@@H]1O[C@H](COP(=O)(O)O)[C@@H](O)[C@@H]1O [ara-AMP]
suppression of viral DNA ([1]; similar dose given for 14 days): suppressed viral DNA but was followed by a rapid rebound to levels above baseline
HBV markers after dosing was stopped (hepatitis B virus): very rapidly rebounded to baseline levels and above
HBV markers after dosing was stopped (hepatitis B virus; listed as Ara-AMP): rapid rebound of DNA levels to pretreatment levels after 10-28 days of therapy is the norm
toxicity on continued administration (hepatitis B virus; [8]): intolerably toxic
toxicity on continued administration (hepatitis B virus; human, in vivo): too toxic (persistent and severe neuromuscular pain)

O=c1ccn([C@@H]2O[C@H](CO)[C@@H](O)[C@@H]2F)c(=O)[nH]1 [FAU, 1-(2'-deoxy-2'-fluoro-β-D-arabinofuranosyl)uracil]
FAU plasma values (rarely exceeded) ([2]; human, po, 1 mg/kg/day): ≤ 0.15 µg/mL
FAU plasma values after the initial dose [2]: almost always undetectable

Nc1ncnc2c1ncn2[C@@H]1O[C@H](CO)[C@@H](O)[C@@H]1O [ara-A]
HBV markers after dosing was stopped (hepatitis B virus): very rapidly rebounded to baseline levels and above
toxicity on continued administration (hepatitis B virus; [8]): too toxic (persistent and severe neuromuscular pain)

Nc1nc(=O)n([C@@H]2O[C@H](CO)[C@@H](O)[C@@H]2F)cc1I [FIAC, 1-(2'-deoxy-2'-fluoro-β-D-arabinofuranosyl)-5-iodocytosine]
stability in an acid environment [3]: stable in an acid environment
EC90 (HSV-1): ~50 nM
EC90 (CMV): ~500 nM
CC50 [4]: ~10000 nM
IC50 [5]: 50 to 100 nM
IC50 [6]: 50 to 100 nM
suppression of viral polymerase and DNA ([1]; FIAC 20 mg/kg-day for 7 days): Rapid, complete and persistent suppression
accumulation in the plasma ([7]; month long TID dosing of FIAC): neither FIAC, FIAU, or their metabolites accumulated in the plasma
absorption following oral administration ([7]; oral FIAC, patients): nearly completely absorbed
conversion of FIAC to FIAU ([7]; oral FIAC, patients): very rapidly converted to FIAU
FIAC in plasma two hours after dosing ([7]; oral FIAC): almost never detected

interferon-alpha
patients with major and sustained decreases in HBV DNA (hepatitis B virus; HBeAg positive chronic HBV infection, therapy for months): less than half of patients
patient population in which effective (hepatitis B virus; reported): effective only in non-HIV infected patients with baseline entry serum HBV DNA levels less than 200 pg/ml
